Test results taken from paper PMC9146228, “Bioactivity of Novel Pyrazole-Thiazolines Scaffolds against Trypanosoma cruzi: Computational Approaches and 3D Spheroid Model on Drug Discovery for Chagas Disease” (Pharmaceutics, 2022).

Tests used:
[1] = test system: T. cruzi (Dm28c-Luc) trypomastigotes; assay: microbe, parasite or virus in culture; type: cell-based, Trypanosoma cruzi; settings: Trypanosoma cruzi; Dm28c-Luc, 24 h, mean ± SD; read-out: Trypanocidal Activity Trypomastigotes IC90
Experimental: The screening assays were performed with T. cruzi clone Dm28c (TcI) genetically modified to express luciferase gene (Dm28c-Luc), kindly provided by Dr. Cristina Henriques. Trypomastigotes were isolated from T. cruzi-infected Vero cell monolayers (10:1 parasites/host cell ratio). On the 4th day post-infection (dpi), free trypomastigotes in the culture supernatant were harvested, and the number of parasites/mL was quantified in a Neubauer chamber.
The trypanocidal activity of the pyrazole-thiazoline derivatives was evaluated against trypomastigote and intracellular amastigote forms of T. cruzi (Dm28c-Luc). Tissue-derived trypomastigotes (1 × 10^6 parasites/well) were incubated with pyrazole-thiazoline derivatives and Bz in different concentrations (0.41–100 µM) for 24 h at 37 °C in a humidified atmosphere and 5% CO2. The parasite viability was determined by the addition of luciferin (300 µg/mL), followed by luminescence detection on the GloMax microplate reader (Promega Corporation, Madison, WI, USA).
(§1) After 72 h of treatment, luciferin (300 µg/mL) was added to the culture, and the viability of the parasites was assessed by reading the luminescent signal on the GloMax reader (Promega Corporation, Madison, WI, USA). Controls were also performed in non-toxic concentrations of DMSO (≤ 1%). The concentration that reduces the number of viable parasites by 50% (IC50) or 90% (IC90) was calculated by linear regression. The selectivity index (SI) was calculated as CC50/IC50 for each parasite form.

[2] = test system: T. cruzi (Dm28c-Luc) intracellular amastigotes; assay: Trypanocidal activity against intracellular amastigotes in infected Vero cell monolayers; type: cell-based, Trypanosoma cruzi; settings: Trypanosoma cruzi; Dm28c-Luc in Vero cells, 72 h, mean ± SD; read-out: Trypanocidal Activity Intracellular Amastigotes IC90
Experimental: The susceptibility of intracellular amastigotes to pyrazole-thiazoline derivatives (series 1 and 2) was evaluated using 24 h T. cruzi-infected Vero cell monolayers (10:1 parasite/host cell ratio). Then, the cultures were washed with PBS to remove non-internalized parasites, and 200 μL of fresh medium with a serial dilution of pyrazole-thiazoline derivatives and Bz (0.41–100 µM) was added for 72 h at 37 °C.
as §1

[3] = Cytotoxicity in vitro assay (CellTiter-Glo); type: cell-based; settings: African green monkey, Vero cells, mean ± SD
Experimental: (§2) Vero cells, obtained from the Rio de Janeiro Cell Bank (BCRJ code 0245), were dissociated with trypsin–EDTA solution (0.025%), and maintained in RPMI 1640 medium supplemented with 10% fetal bovine serum (FBS) at 37 °C in a humidified atmosphere of 5% CO2.
(§3) The compound toxicity was evaluated in Vero cell cultures. Briefly, Vero cells were seeded in 96-well white culture plates at a density of 1.5 × 10^4 cells/well for 24 h at 37 °C and 5% CO2. Thereafter, the cell monolayers were washed with phosphate-buffered saline (PBS) and 200 μL of fresh medium with a serial dilution of the pyrazole-thiazoline derivatives and Bz (1.9–500 µM) added. The cell viability was determined by luminescent assay using the CellTiter-Glo Kit (Promega Corporation, Madison, WI, USA) based on the ATP level. After 72 h of treatment, 20 μL of CellTiter-Glo solution was added per well, and cultures were kept for 2 min under agitation. The luminescent signal was read on the GloMax reader (Promega Corporation, Madison, WI, USA). The concentration of compounds that reduced 50% of cell viability (CC50) was calculated by linear regression. At least three independent assays were performed in duplicate.

Vero cells = assay: Cytotoxicity in vitro assay (CellTiter-Glo); type: cell-based; settings: 72 h, mean ± SD
Experimental: as §2, §3

[4] = test system: T. cruzi (Dm28c-Luc)-infected Vero cell spheroids; assay: 3D culture model: T. cruzi-infected Vero cell spheroids; type: cell-based, Trypanosoma cruzi; settings: 72 h; for parasite load, arbitrary luminescence unit (ALU): untreated ALU = 166,678 ± 22,824
Experimental: Tridimensional Vero cell cultures were obtained as previously described. Briefly, the isolated cells (2 × 10^4/well) were cultured in 96-well U-bottom plates previously coated with 1% agarose. The spheroids were kept for 5 days at 37 °C in RPMI 1640 medium supplemented with 10% FBS for complete three-dimensional organization. Both 2D and 3D culture models were used for trypanocidal activity assays.
Vero cell spheroids were infected for 24 h with 2 × 10^5 trypomastigotes (Dm28c-Luc). […] Parasite load was assessed by the luminescence reaction after adding the luciferase substrate (luciferin 300 µg/mL). In addition, fluorescence microscopy images of untreated and treated T. cruzi-infected spheroids were acquired after fixing the cultures with 4% paraformaldehyde in PBS and 4′,6-diamidino-2-phenylindole (DAPI) staining, a DNA dye. The samples were observed under the Zeiss Axio Imager M2 fluorescence microscope (Carl Zeiss, Baden-Württemberg, Germany).

[5] = test system: T. cruzi Dm28c-Luc in Vero cell cultures; assay: Reversibility (washout) assay; type: cell-based, Trypanosoma cruzi; settings: 50 µM, 72 h treatment then 72 h drug-free
Experimental: Then, the cultures were washed with PBS, and maintained for another 72 h at 37 °C in a drug-free medium. Trypomastigotes released in the culture supernatant were detected by transferring the culture medium to 96-well plates, followed by luciferin (300 µg/mL) addition. Viable intracellular amastigotes were also accessed by adding luciferin solution to the cell monolayers.

[6] = test system: T. cruzi cysteine proteases (trypomastigote protein extract); assay: Proteinase activity in solution (Z-FR-AMC); type: biochemical, Trypanosoma cruzi; settings: up to 100 µM, Z-FR-AMC substrate
Experimental: Trypomastigote protein extracts (Dm28c-Luc; 10^8 parasites/mL) were obtained as previously described. The cysteine protease activity of the total protein extracts (5 µg) was measured using the reaction buffer (CH3COONa 10 mM, pH 5.0 containing 1 mM DTT), in the presence of the fluorogenic peptide substrate […], CBZ-L-Phenylalanyl-l-Arginine amide (Z -FR-AMC), and serial dilutions of pyrazole-thiazolines derivatives (100–6.25 µM). The samples were incubated for 45 min at room temperature. The variation in arbitrary fluorescence units (AFU), corresponding to the enzymatic cleavage of the fluorogenic substrate, was monitored in a SpectraMax M2e reader (Molecular Devices, Sunnyvale, CA, USA) for 1 h, with excitation values at 370 nm and emission values at 460 nm. Extracts incubated with 0.5% DMSO or with cysteine protease inhibitor E-64 were used as […]. […] The inhibitory activity was expressed as percentage inhibition.

Q: With `Clc1ccc(-n2cc(C3=NCCS3)cn2)c(Cl)c1` [Compound 2c, 2-(1-(2,4-dichlorophenyl)-1H-pyrazol-4-yl)-4,5-dihydrothiazole] as the compound, how does the IC90 [1] read?
A: 2.8 ± 0.6 µM

Q: What about the IC90 [2] of the same compound?
A: 16.9 ± 2.5 µM

Q: And the CC50 at 72 h [3]?
A: > 100 µM

Q: What about the CC50 (Vero cells) of the same compound?
A: 107 ± 11.4 µM

Q: What about the “parasite load, arbitrary luminescence unit (ALU)” value ([4]; 25 µM) of the same compound?
A: 3329 ± 250 ALU

Q: And the “parasite load, arbitrary luminescence unit (ALU)” value ([4]; 50 µM)?
A: 1648 ± 343 ALU

Q: What about the “inhibition compared to untreated T. cruzi-infected microtissue” value ([4]; 25 and 50 µM) of the same compound?
A: approximately 98%

Q: What about the “reduction of release of trypomastigotes in the culture supernatant after washout” value [5] of the same compound?
A: 85%

Q: And the inhibition at 50 µM ([5]; Trypanosoma cruzi, Vero, read-out: inhibition of cell monolayer infection (intracellular amastigotes) after washout)?
A: 78%

Q: What about the “maximum inhibition of cysteine protease activity” value [6] of the same compound?
A: ≤ 10%
